In brackets after ≈: the same amount, converted by molar mass. Marks after values point to notes of the source that are not given here. Peptide text beside a SMILES is read from it.
Assays:
GC receptor = molecular target: T1, GC receptor (Homo sapiens, UniProt P47871); assay: GC receptor mediated cAMP production in vitro (HEK293 cells transfected with GC receptor); format: cell-based; settings: 20 min at 37° C., read-out: GCGR (nM EC50)
T1 construct: expressed in transfected cells; host or cells: HEK293 cells
Text: The medium was removed, the cells were lysed, and cAMP values were detected referring to the detection method described for the assay kit.

[1] = Effect on body weight of DIO mice after 14 days' administration; format: in vivo, C57BL/6J mice; settings: for body weight change, Table 5: Example 4, DIO mice, 14 days' administration, methods as in Example 3
Text: C57BL/6J mice (n=35), model group (n=30) were fed with H10060 high-fat diet to induce obesity (DIO), blank control group (n=5) were fed with standard diet, both for 34 weeks. One day before the first administration, the model group was randomly divided into groups according to their body weight (average body weight range 45.0-52.0 g), with 5 mice in each group, which respectively were model control group, positive control group (semaglutide), and test sample group (1 #-4 # are compound 1, compound 4, compound 6 and compound 22, respectively). The blank control group and model control group were given saline subcutaneously every day, while the positive control group and test sample group were administrated by subcutaneous injection every day for 14 days. The body weight of the animals was weighed and recorded every day, and the change rate of body weight (%) was calculated by comparing the body weight at the last administration day with the initial body weight. (initial body weight−last body weight)/initial body weight=body weight change rate (%). Calculation formula: […]
Calculated positive values indicate a decrease and negative values indicate an increase.
(§1) Methods are the same as that in Example 3, the test results of effects on body weight are shown in Table 5, and the effects on blood glucose are shown in Table 6. In the table, 5 #-9 # are compound 27, compound 35, compound 54, compound 57, and compound 66, respectively.

[2] = Glucose tolerance test in glucose-loaded DIO mice; format: in vivo; set-up: AUC reduction rate (%), Table 6: concentration or dose not given beside the values; settings: for AUC of blood glucose, Table 6: Example 4, DIO mice under glucose load, methods as in Example 3; for AUC reduction rate (%), Table 6: Example 4, compared with model control group, DIO mice under glucose load
Description: DIO mice fasted for 16 h, and 1 h after administration by subcutaneous injection, glucose solution (1 g/kg) was given intraperitoneally for glucose tolerance test. Blood glucose values were measured at 0.5, 1 and 1.5 h after glucose administration. The area under the blood glucose concentration curve (AUC) was calculated and compared with that of the model control group, and the blood glucose inhibition rate (%) was calculated.
as §1

[3] = Short-term administration: food intake and body weight in DIO mice; format: in vivo; settings: 30 nmol/kg once every 24 h, twice, − decrease; for Rate of change in food intake (%): at 48 hours vs day before administration; for Body weight change: at 48 hours
Description: Method: diet-induced obese mice (DIO) with an average body weight of 52.5 g were divided into model control and test groups, 5 mice in each group. The test samples were dissolved in 10 mM PBS of pH7.4, injected once every 24 h at a dose of 30 nmol/kg, and administered twice. The model group was injected with solvent. Changes in food intake and body weight at 48 hours were measured, and the change rates were calculated compared to the day before administration.

physchem = format: physicochemical
[4] = Accelerated chemical stability in injection solvent system (HPLC-UV); format: physicochemical; settings: 14 days, phosphate buffer pH 7.3 with Tween 80 and phenol, main peak area vs day 0
Description: The chemical stability of the compounds of the present invention in injection solution systems was evaluated by an accelerated stability test. Methods: an appropriate amount of compound of Example 1 was weighed, and dissolved in 10 mM pH8.5 sodium hydrogen phosphate buffer. The final pH value of the solution was adjusted to 7.3 with 0.1 N hydrochloric acid, and proper amounts of Tween 80 and phenol were added. The mixture was placed at 10° C. and 37° C. for 14 days, and detected by HPLC-UV. The main peak area was obtained by peak area normalization method, and the changes compared with day 0 were investigated. The HPLC detection method was the same as that in Example 6, and the mobile phase gradient was appropriately adjusted according to the situation of chromatographic peak separation.

[5] = pH 7.5, Solubility, pH 7.5, 10 mM phosphate buffer
[6] = pH 7.5, Solubility, pH 7.5, 20 mM phosphate buffer
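For Solubility in this document: compound added at 2 mg per mL of phosphate buffer, with the dissolved amount determined in the supernatant.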

T1 sequence (P47871 26-477): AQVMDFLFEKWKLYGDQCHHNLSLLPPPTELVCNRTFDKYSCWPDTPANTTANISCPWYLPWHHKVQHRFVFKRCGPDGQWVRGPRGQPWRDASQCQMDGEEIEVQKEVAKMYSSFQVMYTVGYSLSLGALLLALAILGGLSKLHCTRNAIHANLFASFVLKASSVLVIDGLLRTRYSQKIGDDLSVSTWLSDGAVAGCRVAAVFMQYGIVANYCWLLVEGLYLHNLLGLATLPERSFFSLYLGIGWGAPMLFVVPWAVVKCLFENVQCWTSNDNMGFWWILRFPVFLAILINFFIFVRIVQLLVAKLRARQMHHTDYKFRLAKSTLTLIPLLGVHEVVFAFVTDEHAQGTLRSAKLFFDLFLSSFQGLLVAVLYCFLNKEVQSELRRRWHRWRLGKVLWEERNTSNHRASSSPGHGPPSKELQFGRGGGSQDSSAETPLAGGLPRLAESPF

SMILES	EC50 (GC receptor)	body weight reduction (in words) ([1]; DIO mice, 14 days, conclusions on Tables 3 and 5)	glucose tolerance / blood glucose lowering (in words) ([2]; DIO mice, conclusions on Tables 4 and 6)	Rate of change in food intake (%) [3]	Body weight change [3]	solubility (physchem; [5])	solubility (physchem; [6])	solubility (physchem; pH 8, Solubility, pH 8.0, 10 mM phosphate buffer)	solubility (physchem; pH 8, Solubility, pH 8.0, 20 mM phosphate buffer)	Change in purity % (10° C.) [4]	Change in purity % (37° C.) [4]	body weight change rate, Table 3 ([1]; DIO mice, subcutaneous injection every day for 14 days, (initial−last)/initial, positive values indicate a decrease)	AUC of blood glucose, Table 4 ([2]; DIO mice fasted 16 h, glucose 1 g/kg i.p. 1 h after s.c. administration, 0.5, 1, 1.5 h)	AUC reduction rate (%), Table 4 ([2]; blood glucose inhibition rate compared with model control group, DIO mice, glucose 1 g/kg i.p.)	body weight change, Table 5 ([1]; positive values indicate a decrease, listed as 5#)	AUC of blood glucose, Table 6 ([2]; listed as 5#)	AUC reduction rate (%), Table 6 ([2]; listed as 5#)	body weight change, Table 5 ([1]; positive values indicate a decrease, listed as 7#)	AUC of blood glucose, Table 6 ([2]; listed as 7#)	AUC reduction rate (%), Table 6 ([2]; listed as 7#)
CCCCCCCCCCCCCCCC(=O)N[C@@H](CCC(=O)N[C@@H](CCC(=O)NCCCC[C@H](NC(=O)[C@H](C)NC(=O)[C@H](CCCNC(=N)N)NC(=O)[C@H](CCCCN)NC(=O)[C@H](CCC(=O)O)NC(=O)[C@H](CC(=O)O)NC(=O)[C@H](CC(C)C)NC(=O)[C@H](Cc1ccc(O)cc1)NC(=O)[C@H](CCCCN)NC(=O)[C@H](CO)NC(=O)[C@H](Cc1ccc(O)cc1)NC(=O)[C@H](CC(=O)O)NC(=O)[C@H](CO)NC(=O)[C@@H](NC(=O)[C@H](Cc1ccccc1)NC(=O)[C@@H](NC(=O)CNC(=O)[C@H](CCC(N)=O)NC(=O)C(C)(C)NC(=O)[C@@H](N)Cc1c[nH]cn1)[C@@H](C)O)[C@@H](C)O)C(=O)N[C@@H](CCC(=O)O)C(=O)N[C@@H](Cc1ccccc1)C(=O)N[C@H](C(=O)N[C@@H](C)C(=O)N[C@@H](Cc1c[nH]c2ccccc12)C(=O)N[C@@H](CC(C)C)C(=O)N[C@@H](CCC(=O)O)C(=O)N[C@@H](C)C(=O)NCC(=O)NCC(=O)N1CCC[C@H]1C(=O)N[C@@H](CO)C(=O)N[C@@H](CO)C(=O)NCC(N)=O)[C@@H](C)CC)C(=O)O)C(=O)O [Compound 57] (HELM PEPTIDE1{H.[Aib].Q.G.T.F.T.S.D.Y.S.K.Y.L.D.E.K.R.A.K.E.F.I.A.W.L.E.A.G.G.P.S.S.G.[am]}|PEPTIDE2{[CCCCCCCCCCCCCCCC(=O)[*:2]].[gGlu].[gGlu]}$PEPTIDE1,PEPTIDE2,20:R3-3:R2$$$V2.0; N-terminus assumed)	0.081 nM	significantly reduced body weight	significantly improved glucose tolerance	−71%	-2.6 g	1460 µg/mL (≈ 343 µM)	1310 µg/mL (≈ 308 µM)	1840 µg/mL (≈ 432 µM)	1530 µg/mL (≈ 359 µM)	−1.1%	−4.0%									
CCCCCCCCCCCCCCCC(=O)N[C@@H](CCC(=O)N[C@@H](CCC(=O)NCCCC[C@H](NC(=O)[C@H](CC(=O)O)NC(=O)[C@H](CO)NC(=O)[C@@H](NC(=O)[C@H](Cc1ccccc1)NC(=O)[C@@H](NC(=O)CNC(=O)[C@H](CCC(N)=O)NC(=O)C(C)(C)NC(=O)[C@@H](N)Cc1c[nH]cn1)[C@@H](C)O)[C@@H](C)O)C(=O)N[C@@H](CO)C(=O)N[C@@H](CCCCN)C(=O)N[C@@H](Cc1ccc(O)cc1)C(=O)N[C@@H](CC(C)C)C(=O)N[C@@H](CCC(=O)O)C(=O)N[C@@H](CCC(=O)O)C(=O)N[C@@H](CCCNC(=N)N)C(=O)N[C@@H](C)C(=O)N[C@@H](C)C(=O)N[C@@H](CCCCN)C(=O)N[C@@H](CCC(=O)O)C(=O)N[C@@H](Cc1ccccc1)C(=O)N[C@H](C(=O)N[C@@H](C)C(=O)N[C@@H](Cc1c[nH]c2ccccc12)C(=O)N[C@@H](CC(C)C)C(=O)N[C@@H](CCC(=O)O)C(=O)N[C@@H](C)C(=O)NCC(=O)NCC(=O)N1CCC[C@H]1C(=O)N[C@@H](CO)C(=O)N[C@@H](CO)C(=O)NCC(N)=O)[C@@H](C)CC)C(=O)O)C(=O)O [Compound 1] (HELM PEPTIDE1{H.[Aib].Q.G.T.F.T.S.D.K.S.K.Y.L.E.E.R.A.A.K.E.F.I.A.W.L.E.A.G.G.P.S.S.G.[am]}|PEPTIDE2{[CCCCCCCCCCCCCCCC(=O)[*:2]].[gGlu].[gGlu]}$PEPTIDE1,PEPTIDE2,10:R3-3:R2$$$V2.0; N-terminus assumed)	0.0574 nM			−58%	-2.8 g	> 2000 µg/mL	> 2000 µg/mL			−1.4%	−5.2%	28.3%	7.24 ± 1.33 mmol·h/L	65.8** %						
CCCCCCCCCCCCCCCC(=O)N[C@@H](CCC(=O)N[C@@H](CCC(=O)NCCCC[C@H](NC(=O)[C@H](CC(=O)O)NC(=O)[C@H](CO)NC(=O)[C@@H](NC(=O)[C@H](Cc1ccccc1)NC(=O)[C@@H](NC(=O)CNC(=O)[C@H](CCC(N)=O)NC(=O)C(C)(C)NC(=O)[C@@H](N)Cc1c[nH]cn1)[C@@H](C)O)[C@@H](C)O)C(=O)N[C@@H](CO)C(=O)N[C@@H](CCCCN)C(=O)N[C@@H](Cc1ccc(O)cc1)C(=O)N[C@@H](CC(C)C)C(=O)N[C@@H](CCC(=O)O)C(=O)N[C@@H](CCC(=O)O)C(=O)N[C@@H](CCCNC(=N)N)C(=O)N[C@@H](C)C(=O)N[C@@H](C)C(=O)N[C@@H](CCCCN)C(=O)N[C@@H](CCC(=O)O)C(=O)N[C@@H](Cc1ccccc1)C(=O)N[C@H](C(=O)N[C@@H](CCC(=O)O)C(=O)N[C@@H](Cc1c[nH]c2ccccc12)C(=O)N[C@@H](CC(C)C)C(=O)N[C@@H](CCC(=O)O)C(=O)NCC(=O)NCC(=O)N1CCC[C@H]1C(=O)N[C@@H](CO)C(=O)N[C@@H](CO)C(=O)NCC(N)=O)C(C)C)C(=O)O)C(=O)O [Compound 5] (HELM PEPTIDE1{H.[Aib].Q.G.T.F.T.S.D.K.S.K.Y.L.E.E.R.A.A.K.E.F.V.E.W.L.E.G.G.P.S.S.G.[am]}|PEPTIDE2{[CCCCCCCCCCCCCCCC(=O)[*:2]].[gGlu].[gGlu]}$PEPTIDE1,PEPTIDE2,10:R3-3:R2$$$V2.0; N-terminus assumed)	0.193 nM														27.74	7.12 ± 1.30 mmol·h/L	64.2** %			
CCCCCCCCCCCCCCCC(=O)N[C@@H](CCC(=O)N[C@@H](CCC(=O)NCCCC[C@H](NC(=O)[C@H](CC(=O)O)NC(=O)[C@H](CO)NC(=O)[C@@H](NC(=O)[C@H](Cc1ccccc1)NC(=O)[C@@H](NC(=O)CNC(=O)[C@H](CCC(N)=O)NC(=O)C(C)(C)NC(=O)[C@@H](N)Cc1c[nH]cn1)[C@@H](C)O)[C@@H](C)O)C(=O)N[C@@H](CO)C(=O)N[C@@H](CCCCN)C(=O)N[C@@H](Cc1ccc(O)cc1)C(=O)N[C@@H](CC(C)C)C(=O)N[C@@H](CCC(=O)O)C(=O)N[C@@H](CCC(=O)O)C(=O)N[C@@H](CCCNC(=N)N)C(=O)N[C@@H](C)C(=O)N[C@@H](C)C(=O)N[C@@H](CCCCN)C(=O)N[C@@H](CCC(=O)O)C(=O)N[C@@H](Cc1ccccc1)C(=O)N[C@H](C(=O)N[C@@H](CCC(=O)O)C(=O)N[C@@H](Cc1c[nH]c2ccccc12)C(=O)N[C@@H](CC(C)C)C(=O)N[C@@H](CCC(=O)O)C(=O)NCC(=O)NCC(=O)N1CCC[C@H]1C(=O)N[C@@H](CO)C(=O)N[C@@H](CO)C(=O)NCC(N)=O)C(C)C)C(=O)O)C(=O)O [Compound 7] (HELM PEPTIDE1{H.[Aib].Q.G.T.F.T.S.D.K.S.K.Y.L.E.E.R.A.A.K.E.F.V.E.W.L.E.G.G.P.S.S.G.[am]}|PEPTIDE2{[CCCCCCCCCCCCCCCC(=O)[*:2]].[gGlu].[gGlu]}$PEPTIDE1,PEPTIDE2,10:R3-3:R2$$$V2.0; N-terminus assumed)	0.026 nM																	21.45	7.26 ± 1.77 mmol·h/L	63.4** %

Reference: patent publication US12257287B2, “Glucagon-derived peptide and use thereof” (Tianjin Institute of Pharmaceutical Research Co., Ltd., priority 2018, dated 2025)
